According to the supplement of paper PMC10307832:

Experiments:
Experiment in all cases: relative viability (nuclei count vs DMSO), 5 days (fraction); higher = more cells survive
[1] = compound: COc1cc2nc(N3CCCN(C)CC3)nc(NC3CCN(Cc4ccccc4)CC3)c2cc1OC + CCNC(=O)c1noc(-c2cc(C(C)C)c(O)cc2O)c1-c1ccc(CN2CCOCC2)cc1 [Luminespib] (partner 0.01 µM)
Method in brief: (§1)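 Medians of duplicate plates are given as relative viability. That measure is the nuclei count in treated wells divided by the count in vehicle wells. Counts were taken on 4× images of lung cancer cell lines in 1536-well plates, 5 days after pin-tool dosing the day after seeding with one drug alone or a fixed anchor-drug dose plus five library-drug doses (not always all listed) in √10 steps.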

[2] = compound: COc1cc2nc(N3CCCN(C)CC3)nc(NC3CCN(Cc4ccccc4)CC3)c2cc1OC + O=C(c1cc(Cc2n[nH]c(=O)c3ccccc23)ccc1F)N1CCN(C(=O)C2CC2)CC1 [Olaparib] (partner 8 µM)
Method in brief: as §1

AZD6482 + Pictilisib = compound: Cc1cc([C@@H](C)Nc2ccccc2C(=O)O)c2nc(N3CCOCC3)cc(=O)n2c1 [AZD6482] + CS(=O)(=O)N1CCN(Cc2cc3nc(-c4cccc5[nH]ncc45)nc(N4CCOCC4)c3s2)CC1 [Pictilisib] (partner 1 µM)
Method in brief: as §1

AZD6482 + AZD7762 = compound: Cc1cc([C@@H](C)Nc2ccccc2C(=O)O)c2nc(N3CCOCC3)cc(=O)n2c1 [AZD6482] + NC(=O)Nc1cc(-c2cccc(F)c2)sc1C(=O)N[C@H]1CCCNC1 [AZD7762] (partner 0.2 µM)
Method in brief: as §1

Row | Cell Line | relative viability ([1]; first compound 0.2 µM) | relative viability ([1]; first compound 0.6325 µM) | relative viability ([1]; first compound 2 µM) | relative viability ([1]; first compound 6.325 µM) | relative viability ([2]; first compound 0.2 µM) | relative viability ([2]; first compound 0.6325 µM) | relative viability ([2]; first compound 2 µM) | relative viability ([2]; first compound 6.325 µM) | relative viability (AZD6482 + Pictilisib; first compound 0.08 µM) | relative viability (AZD6482 + Pictilisib; first compound 0.253 µM) | relative viability (AZD6482 + Pictilisib; first compound 0.8 µM) | relative viability (AZD6482 + Pictilisib; first compound 2.53 µM) | relative viability (AZD6482 + Pictilisib; first compound 8 µM) | relative viability (AZD6482 + AZD7762; first compound 0.08 µM) | relative viability (AZD6482 + AZD7762; first compound 0.253 µM) | relative viability (AZD6482 + AZD7762; first compound 0.8 µM) | relative viability (AZD6482 + AZD7762; first compound 2.53 µM) | relative viability (AZD6482 + AZD7762; first compound 8 µM)
1 | NCI-H1975 | 0.159 | 0.212 | 0.21 | 0.264 | 0.761 | 0.755 | 0.915 | 0.823 | 0.249 | 0.275 | 0.307 | 0.274 | 0.258 | 0.621 | 0.631 | 0.676 | 0.477 | 0.363
2 | CAL-12T | 0.441 | 0.308 | 0.337 | 0.28 | 0.676 | 0.689 | 0.8 | 0.699 | 0.395 |  | 0.571 | 0.291 | 0.432 | 0.686 | 0.647 | 0.677 | 0.468 | 0.665
3 | NCI-H1623 | 0.493 | 0.586 | 0.502 | 0.513 |  |  |  |  |  |  |  |  |  |  |  |  |  | 
4 | HCC-44 | 0.96 | 1.08 | 1.34 | 1.34 | 0.974 | 1.02 | 0.953 | 0.977 | 0.416 | 0.589 | 0.567 | 0.452 | 0.531 | 0.897 | 0.997 | 1.1 | 1.11 | 1.38
5 | EKVX | 0.829 | 0.878 | 0.831 | 0.888 | 0.838 | 0.873 | 0.808 | 0.776 | 0.378 | 0.326 | 0.441 | 0.235 | 0.467 | 0.564 | 0.666 | 0.538 | 0.478 | 0.494
6 | NCI-H1651 | 0.905 | 0.846 | 1.14 | 0.804 | 0.181 | 0.149 | 0.157 | 0.17 | 0.596 | 0.58 | 0.569 | 0.432 | 0.508 | 0.457 | 0.379 | 0.456 | 0.391 | 0.379
7 | NCI-H1944 | 0.829 | 0.668 | 0.863 | 0.661 | 0.416 | 0.436 | 0.397 | 0.396 | 0.314 | 0.342 | 0.366 | 0.246 | 0.33 | 0.57 | 0.522 | 0.499 | 0.381 | 0.417
8 | NCI-H1703 |  |  |  |  | 0.395 | 0.334 | 0.365 | 0.394 | 0.245 | 0.239 | 0.233 | 0.204 | 0.191 |  |  | 0.333 | 0.131 | 0.149
9 | Calu-6 |  |  |  |  | 0.598 | 0.542 | 0.591 | 0.537 | 0.823 | 0.85 | 0.846 | 0.673 | 0.937 |  |  |  |  | 
10 | EBC-1 |  |  |  |  | 0.698 | 0.647 | 0.757 | 0.5 | 0.314 | 0.295 | 0.209 | 0.197 | 0.292 |  |  |  |  | 
11 | SW 1573 | 0.179 | 0.27 | 0.356 | 0.152 | 0.496 | 0.473 | 0.487 | 0.125 | 0.415 | 0.459 | 0.445 | 0.304 | 0.447 |  |  |  |  | 
12 | A-427 | 0.934 | 0.784 | 0.8 | 0.997 | 0.708 | 0.705 | 0.833 | 0.768 | 0.655 | 0.697 | 0.735 | 0.601 | 0.682 | 0.645 | 0.804 | 0.684 | 0.451 | 0.627
13 | NCI-H2347 | 0.57 | 0.521 | 0.446 | 0.524 | 0.563 | 0.532 | 0.535 | 0.521 |  | 0.75 | 0.559 | 0.393 | 0.421 | 0.502 | 0.464 | 0.332 | 0.32 | 0.373
14 | NCI-H1355 | 0.715 | 0.693 | 0.734 | 0.773 | 0.714 | 0.743 | 0.862 | 0.79 | 0.302 | 0.43 | 0.425 | 0.244 | 0.453 | 0.642 | 0.755 | 0.745 | 0.681 | 0.65
15 | NCI-H358 | 0.506 | 0.275 | 0.434 | 0.208 | 0.51 | 0.628 | 0.644 | 0.568 | 0.274 | 0.386 | 0.276 | 0.202 | 0.358 | 0.545 | 0.487 | 0.549 | 0.302 | 0.439
16 | PC-3 [JPC-3] | 0.753 | 0.675 | 0.745 | 0.585 | 1.2 | 1.24 | 1.31 | 0.966 | 0.601 | 0.743 | 0.739 | 0.652 | 0.681 | 0.872 | 0.715 | 0.741 | 0.367 | 0.413
17 | NCI-H2228 | 0.162 | 0.12 | 0.138 | 0.101 | 0.637 | 0.62 | 0.46 | 0.35 | 0.368 | 0.691 | 0.266 | 0.387 | 0.387 |  |  |  |  | 
18 | HOP-62 | 0.907 | 0.856 | 0.817 | 0.952 | 0.393 | 0.202 | 0.355 | 0.537 | 0.76 | 0.741 | 0.8 | 0.556 | 0.667 | 0.577 | 0.626 | 0.706 | 0.526 | 0.761
19 | HARA | 0.703 | 0.467 | 0.744 | 0.736 | 0.79 | 1.1 | 0.832 | 1.05 | 0.254 | 0.395 | 0.423 |  | 0.59 | 0.424 | 0.338 | 0.269 | 0.224 | 0.516
20 | NCI-H838 | 0.378 | 0.324 | 0.296 | 0.294 | 0.762 | 0.717 | 0.791 | 0.777 | 0.461 | 0.464 | 0.442 | 0.339 | 0.487 | 0.936 | 0.902 | 0.934 | 0.78 | 0.759
